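Where inhibition never reached the appropriate level, the endpoint shown equals the highest concentration tested. Otherwise, values were interpolated linearly from a five-concentration, 48-hour dose response in 96-well plates. GI50 = concentration required for 50% inhibition of growth.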 The source made the active and inactive calls. Rule as the data show it: active = GI50 up to about 1.1 µM and inactive = higher.
Assays:
Assay in all cases: DTP human tumour cell line panel, 48 h
SNB-75 = tested on: SNB-75
MDA-MB-435 = tested on: MDA-MB-435
LOX IMVI = tested on: LOX IMVI
SK-MEL-5 = tested on: SK-MEL-5
SNB-19 = tested on: SNB-19
UACC-62 = tested on: UACC-62
RXF 393 = tested on: RXF 393
NCI-H522 = tested on: NCI-H522
SK-MEL-2 = tested on: SK-MEL-2
786-0 = tested on: 786-0
NCI-H23 = tested on: NCI-H23
ACHN = tested on: ACHN
UACC-257 = tested on: UACC-257
BT-549 = tested on: BT-549
SW-620 = tested on: SW-620
RPMI-8226 = tested on: RPMI-8226
IGROV-1 = tested on: IGROV-1
SF-268 = tested on: SF-268
HOP-92 = tested on: HOP-92
MOLT-4 = tested on: MOLT-4
PC-3 = tested on: PC-3
SK-OV-3 = tested on: SK-OV-3
CCRF-CEM = tested on: CCRF-CEM
OVCAR-8 = tested on: OVCAR-8
U-251 = tested on: U-251
OVCAR-5 = tested on: OVCAR-5
OVCAR-3 = tested on: OVCAR-3
K562 = tested on: K562
MDA-N = tested on: MDA-N
HCT-116 = tested on: HCT-116
SN12C = tested on: SN12C
KM12 = tested on: KM12
EKVX = tested on: EKVX
COLO 205 = tested on: COLO 205
NCI-H460 = tested on: NCI-H460
HCC 2998 = tested on: HCC 2998
SF-295 = tested on: SF-295
NCI/ADR-RES = tested on: NCI/ADR-RES
A549 = tested on: A549
T47D = tested on: T47D
Malme-3M = tested on: Malme-3M
HT-29 = tested on: HT-29
NCI-H226 = tested on: NCI-H226
HL-60 = tested on: HL-60
MCF7 = tested on: MCF7
TK-10 = tested on: TK-10
CAKI-1 = tested on: CAKI-1
DU-145 = tested on: DU-145
SK-MEL-28 = tested on: SK-MEL-28
A498 = tested on: A498
MDA-MB-231 = tested on: MDA-MB-231
HOP-62 = tested on: HOP-62
Hs-578T = tested on: Hs-578T
OVCAR-4 = tested on: OVCAR-4
HCT-15 = tested on: HCT-15
SF-539 = tested on: SF-539
SR = tested on: SR
UO-31 = tested on: UO-31
M14 = tested on: M14

**Q.** What does the source list for `Cc1ccc(/C=C2\CCCC(CN3CCCCC3)C2=O)cc1` (centres undefined)?
**A.** GI50 (SNB-75): 4.66 µM (inactive); GI50 (MDA-MB-435): 1.82 µM (inactive); GI50 (LOX IMVI): 1.84 µM (inactive); GI50 (SK-MEL-5): 4.66 µM (inactive); GI50 (SNB-19): 15.2 µM (inactive); GI50 (UACC-62): 4.73 µM (inactive); GI50 (RXF 393): 1.56 µM (inactive); GI50 (NCI-H522): 1.79 µM (inactive); GI50 (SK-MEL-2): 2.89 µM (inactive); GI50 (786-0): 2.02 µM (inactive); GI50 (NCI-H23): 2.17 µM (inactive); GI50 (ACHN): 3.98 µM (inactive); GI50 (UACC-257): 1.93 µM (inactive); GI50 (BT-549): 2.29 µM (inactive); GI50 (SW-620): 1.75 µM (inactive); GI50 (RPMI-8226): > 100 µM (inactive); GI50 (IGROV-1): 1.96 µM (inactive); GI50 (SF-268): 2.09 µM (inactive); GI50 (HOP-92): 1.81 µM (inactive); GI50 (MOLT-4): 4 µM (inactive); GI50 (PC-3): 2.79 µM (inactive); GI50 (SK-OV-3): 16.5 µM (inactive); GI50 (CCRF-CEM): 0.757 µM (active); GI50 (OVCAR-8): 2.64 µM (inactive); GI50 (U-251): 14.3 µM (inactive); GI50 (OVCAR-5): 15 µM (inactive); GI50 (OVCAR-3): 1.87 µM (inactive); GI50 (K562): 1.57 µM (inactive); GI50 (MDA-N): 2.77 µM (inactive); GI50 (HCT-116): 1.76 µM (inactive); GI50 (SN12C): 2.96 µM (inactive); GI50 (KM12): 1.27 µM (inactive); GI50 (EKVX): 17.6 µM (inactive); GI50 (COLO 205): 1.82 µM (inactive); GI50 (NCI-H460): 3.89 µM (inactive); GI50 (HCC 2998): 15.3 µM (inactive); GI50 (SF-295): 17.2 µM (inactive); GI50 (NCI/ADR-RES): 5.38 µM (inactive); GI50 (A549): 17.7 µM (inactive); GI50 (T47D): 1.82 µM (inactive); GI50 (Malme-3M): 2.51 µM (inactive); GI50 (HT-29): 1.77 µM (inactive); GI50 (NCI-H226): 2.29 µM (inactive); GI50 (HL-60): 0.555 µM (active); GI50 (MCF7): 0.721 µM (active); GI50 (TK-10): 3.22 µM (inactive); GI50 (CAKI-1): 1.79 µM (inactive); GI50 (DU-145): 11.7 µM (inactive); GI50 (SK-MEL-28): 1.63 µM (inactive); GI50 (A498): 13.4 µM (inactive); GI50 (MDA-MB-231): 1.85 µM (inactive); GI50 (HOP-62): 20.3 µM (inactive); GI50 (Hs-578T): 2.13 µM (inactive); GI50 (OVCAR-4): 1.79 µM (inactive); GI50 (HCT-15): 2.14 µM; GI50 (SF-539): 4.42 µM (inactive); GI50 (SR): 0.767 µM (active); GI50 (UO-31): 1.84 µM (inactive)

**Q.** Which GI50 (SNB-75) does the source give for `O=C1c2ccccc2CCC1C(O)(C(F)(F)F)C(F)(F)F` (centres undefined) here?
**A.** Its GI50 is 26.2 µM (inactive).

**Q.** What about the GI50 (MDA-MB-435) of the same compound?
**A.** The GI50 was > 100 µM (inactive).

**Q.** And the GI50 (LOX IMVI)?
**A.** The GI50 was > 100 µM (inactive).

**Q.** What about the GI50 (SK-MEL-5) of the same compound?
**A.** The GI50 was 49.2 µM (inactive).

**Q.** What about the GI50 (SNB-19) of the same compound?
**A.** The GI50 was > 100 µM (inactive).

**Q.** And the GI50 (UACC-62)?
**A.** The GI50 was > 100 µM (inactive).

**Q.** What about the GI50 (RXF 393) of the same compound?
**A.** The GI50 was 93.8 µM (inactive).

**Q.** And the GI50 (NCI-H522)?
**A.** Its GI50 is > 100 µM (inactive).

**Q.** And the GI50 (SK-MEL-2)?
**A.** The GI50 was 27.5 µM (inactive).

**Q.** And the GI50 (786-0)?
**A.** The GI50 was > 100 µM (inactive).

**Q.** And the GI50 (NCI-H23)?
**A.** Its GI50 is > 100 µM (inactive).

**Q.** What about the GI50 (ACHN) of the same compound?
**A.** The GI50 was > 100 µM (inactive).

**Q.** And the GI50 (UACC-257)?
**A.** Its GI50 is > 100 µM (inactive).

**Q.** And the GI50 (BT-549)?
**A.** The GI50 was > 100 µM (inactive).

**Q.** And the GI50 (SW-620)?
**A.** Its GI50 is > 100 µM (inactive).

**Q.** What about the GI50 (RPMI-8226) of the same compound?
**A.** The GI50 was > 100 µM (inactive).

**Q.** And the GI50 (IGROV-1)?
**A.** The GI50 was > 100 µM (inactive).

**Q.** What about the GI50 (HOP-92) of the same compound?
**A.** The GI50 was > 100 µM (inactive).

**Q.** What about the GI50 (MOLT-4) of the same compound?
**A.** Its GI50 is 44.6 µM (inactive).

**Q.** And the GI50 (PC-3)?
**A.** Its GI50 is > 100 µM (inactive).

**Q.** And the GI50 (SK-OV-3)?
**A.** The GI50 was > 100 µM (inactive).

**Q.** And the GI50 (CCRF-CEM)?
**A.** Its GI50 is > 100 µM (inactive).

**Q.** And the GI50 (OVCAR-8)?
**A.** Its GI50 is > 100 µM (inactive).

**Q.** And the GI50 (U-251)?
**A.** Its GI50 is > 100 µM (inactive).

**Q.** And the GI50 (OVCAR-5)?
**A.** The GI50 was > 100 µM (inactive).

**Q.** And the GI50 (OVCAR-3)?
**A.** Its GI50 is > 100 µM (inactive).

**Q.** What about the GI50 (K562) of the same compound?
**A.** The GI50 was > 100 µM (inactive).

**Q.** What about the GI50 (MDA-N) of the same compound?
**A.** Its GI50 is > 100 µM (inactive).

**Q.** What about the GI50 (HCT-116) of the same compound?
**A.** Its GI50 is > 100 µM (inactive).

**Q.** And the GI50 (KM12)?
**A.** Its GI50 is > 100 µM (inactive).

**Q.** And the GI50 (EKVX)?
**A.** Its GI50 is > 100 µM (inactive).

**Q.** What about the GI50 (COLO 205) of the same compound?
**A.** The GI50 was > 100 µM (inactive).

**Q.** What about the GI50 (NCI-H460) of the same compound?
**A.** Its GI50 is > 100 µM (inactive).

**Q.** What about the GI50 (HCC 2998) of the same compound?
**A.** The GI50 was 3.67 µM (inactive).

**Q.** What about the GI50 (SF-295) of the same compound?
**A.** Its GI50 is > 100 µM (inactive).

**Q.** And the GI50 (NCI/ADR-RES)?
**A.** The GI50 was > 100 µM (inactive).

**Q.** What about the GI50 (A549) of the same compound?
**A.** The GI50 was > 100 µM (inactive).

**Q.** What about the GI50 (T47D) of the same compound?
**A.** The GI50 was 44.3 µM (inactive).

**Q.** And the GI50 (Malme-3M)?
**A.** The GI50 was > 100 µM (inactive).

**Q.** What about the GI50 (HT-29) of the same compound?
**A.** Its GI50 is > 100 µM (inactive).

**Q.** What about the GI50 (NCI-H226) of the same compound?
**A.** Its GI50 is > 100 µM (inactive).

**Q.** What about the GI50 (HL-60) of the same compound?
**A.** The GI50 was > 10 µM (inactive).

**Q.** And the GI50 (MCF7)?
**A.** The GI50 was > 100 µM (inactive).

**Q.** What about the GI50 (TK-10) of the same compound?
**A.** The GI50 was > 100 µM (inactive).

**Q.** What about the GI50 (CAKI-1) of the same compound?
**A.** The GI50 was > 100 µM (inactive).

**Q.** What about the GI50 (DU-145) of the same compound?
**A.** The GI50 was > 100 µM (inactive).

**Q.** And the GI50 (SK-MEL-28)?
**A.** The GI50 was > 100 µM (inactive).

**Q.** What about the GI50 (A498) of the same compound?
**A.** Its GI50 is > 100 µM (inactive).

**Q.** What about the GI50 (M14) of the same compound?
**A.** The GI50 was > 100 µM (inactive).

**Q.** And the GI50 (MDA-MB-231)?
**A.** Its GI50 is > 100 µM (inactive).

**Q.** What about the GI50 (Hs-578T) of the same compound?
**A.** Its GI50 is > 100 µM (inactive).

**Q.** And the GI50 (OVCAR-4)?
**A.** The GI50 was > 100 µM (inactive).

**Q.** And the GI50 (HCT-15)?
**A.** Its GI50 is 63 µM.

**Q.** What about the GI50 (SF-539) of the same compound?
**A.** Its GI50 is > 100 µM (inactive).

**Q.** What about the GI50 (SR) of the same compound?
**A.** The GI50 was > 100 µM (inactive).

**Q.** What about the GI50 (UO-31) of the same compound?
**A.** Its GI50 is > 100 µM (inactive).

Source: ChEMBL document CHEMBL1201862, “PubChem BioAssay data set” (2004)
